Data published in paper PMC6238539, “Discovery of a cofactor-independent inhibitor of Mycobacterium tuberculosis InhA” (Life Science Alliance, 2018).
Values after ≈ are worked out from the molar mass of the structure shown. Values joined by “and” are separate entries in the source; they are usually repeats but may differ in a detail not shown here. Equal values may be shown once. Read-outs that look alike come from different tables or passages of the source.

What was measured:
[1] = tested on: M. tuberculosis drug-resistant clinical isolates; assay: microbe, parasite or virus in culture; type: cell-based; conditions: Mycobacterium tuberculosis
[2] = tested on: M. tuberculosis inhA promoter and coding sequence mutants; conditions: cited from earlier work
[3] = tested on: M. tuberculosis H37Rv-resistant mutants; type: cell-based, Mycobacterium tuberculosis; conditions: read-out: Liquid media IC90
M. tuberculosis = conditions: cited from earlier work
M. tuberculosis H37Rv = type: cell-based, Mycobacterium tuberculosis
[4] = tested on: M. tuberculosis inhA promoter and coding sequence mutants; type: cell-based, Mycobacterium tuberculosis; conditions: read-out: Liquid IC90
[5] = strains of Table 3, ref McNeil et al, 2017

## CO[C@H]1/C=C/O[C@@]2(C)Oc3c(C)c(O)c4c(O)c(c(/C=N/N5CCN(C)CC5)c(O)c4c3C2=O)NC(=O)/C(C)=C\C=C\[C@H](C)[C@H](O)[C@@H](C)[C@@H](O)[C@@H](C)[C@H](OC(C)=O)[C@@H]1C [RIF, rifampicin]
[1]
  MIC: > 16 µg/mL
[1]; H37RV
  MIC: < 0.06 µg/mL

## NNC(=O)c1ccncc1 [INH, isoniazid]
[1]; H37RV, read-out: MIC
  MIC: < 0.06 µg/mL
[2]; strain H37Rv (WT), ref McNeil et al (2017), read-out: Liquid IC90
  IC90: 0.1 µM
[2]; strain LP-0532543-RM1, InhA S94A, ref McNeil et al (2017)
  Liquid IC90 (fold shift versus WT): 2×
[2]; strain LP-0532543-RM2, InhA D148E, ref McNeil et al (2017)
  Liquid IC90 (fold shift versus WT): 1×
[2]; strain LP-0532543-RM3, InhA A206E, ref McNeil et al (2017)
  Liquid IC90 (fold shift versus WT): 1×
[2]; strain LP-0532543-RM4, InhA M161L, ref McNeil et al (2017)
  Liquid IC90 (fold shift versus WT): 1×
[2]; strain LP-0532543-RM6, InhA M103T, ref McNeil et al (2017)
  Liquid IC90 (fold shift versus WT): 1×
[2]; strain LP-0532543-RM7, InhA G205A, ref McNeil et al (2017)
  Liquid IC90 (fold shift versus WT): 1×
[2]; strain LP-0532543-RM9, InhA I202F, ref McNeil et al (2017)
  Liquid IC90 (fold shift versus WT): 1×
[2]; strain LP-0532543-RM11, InhA G205S, ref McNeil et al (2017)
  Liquid IC90 (fold shift versus WT): 1×
[2]; strain LP-0532543-RM13, InhA F41L, ref McNeil et al (2017)
  Liquid IC90 (fold shift versus WT): 1×
[2]; strain LP-0532543-RM14, InhA G212D, ref McNeil et al (2017)
  Liquid IC90 (fold shift versus WT): 1×
[2]; strain LP-0532543-RM16, InhA I215S, ref McNeil et al (2017)
  Liquid IC90 (fold shift versus WT): 1×
[2]; strain LP-0532543-RM18, InhA S19W, ref McNeil et al (2017)
  Liquid IC90 (fold shift versus WT): 1×
[2]; strain LP-0532543-RM19, InhA I47L, ref McNeil et al (2017)
  Liquid IC90 (fold shift versus WT): 1×
[2]; strain LP-0532543-RM28, InhA I21M, ref McNeil et al (2017)
  Liquid IC90 (fold shift versus WT): 1×
[2]; strain LP-0532543-RM30, fabG1inhA promoter c-15t, ref McNeil et al (2017)
  Liquid IC90 (fold shift versus WT): 5×
[2]; strain LP-0532543-RM34, InhA I21V, ref McNeil et al (2017)
  Liquid IC90 (fold shift versus WT): 2×
[2]; strain LP-0532543-RM37, InhA L269R, ref McNeil et al (2017)
  Liquid IC90 (fold shift versus WT): 1×
[2]; strain LP-0532543-RM41, InhA R195G, ref McNeil et al (2017)
  Liquid IC90 (fold shift versus WT): 2×
[2]; strain LP-0532543-RM301, promoter c-15t, InhA N159K, ref McNeil et al (2017)
  Liquid IC90 (fold shift versus WT): 3×
[2]; strain LP-0532543-RM304, promoter c-15t, InhA T162M, ref McNeil et al (2017)
  Liquid IC90 (fold shift versus WT): 4×
[2]; strain LP-0532543-RM311, promoter c-15t, InhA M161V, ref McNeil et al (2017)
  Liquid IC90 (fold shift versus WT): 5×
[2]; strain LP-0532543-RM313, promoter c-15t, InhA G205D, ref McNeil et al (2017)
  Liquid IC90 (fold shift versus WT): 2×
[2]; strain LP-0532543-RM314, promoter c-15t, InhA I47M, ref McNeil et al (2017)
  Liquid IC90 (fold shift versus WT): 5×
[2]; strain LP-0532543-RM318, promoter c-15t, InhA M199L, ref McNeil et al (2017)
  Liquid IC90 (fold shift versus WT): 4×
[2]; strain LP-0532543-RM320, promoter c-15t, InhA G208D, ref McNeil et al (2017)
  Liquid IC90 (fold shift versus WT): 4×
[2]; strain LP-0571426-RM24, InhA I194T, ref McNeil et al (2017)
  Liquid IC90 (fold shift versus WT): 3×
[3]
  IC90: 0.3 µM and 0.1 µM and 0.4 µM
M. tuberculosis
  frequency of resistance: 1 × 10^−5

## CC1(C)CCC(Cc2cc(O)c(-c3ccccc3)c(=O)[nH]2)CC1 [NITD-916]
[2]; [5]
  resistance of inhA / fabG1inhA promoter mutant strains: resistant
M. tuberculosis; ref Manjunatha et al, 2015, Martínez-Hoyos et al, 2016
  frequency of resistance: 1 × 10^−8

## CCS(=O)(=O)N1N=Cc2ccc(Oc3ccc(C(F)(F)F)cc3/C=N/O)cc2B1O [AN12855]
[1]; H37RV, read-out: MIC
  MIC: 0.13 µg/mL (≈ 0.295 µM)
[1]; read-out: MIC
  MIC: 0.25 µg/mL (≈ 0.567 µM)
M. tuberculosis H37Rv
  frequency of resistance: 6.5 × 10^−7
[4]
  IC90: 0.06 µM

## Oc1cc(Cl)ccc1Oc1ccc(Cl)cc1Cl [triclosan]
[2]; [5]
  cross-resistance of the mutants: None of the mutants demonstrated cross-resistance

## N#Cc1ccc(Oc2ccc3c(c2)COB3O)c(/C=N/O)c1 [AN3438]
M. tuberculosis H37Rv
  frequency of resistance: 6.5 × 10^−7
